Measurements published in patent publication US11459339B2, “Biaryl derivative, preparation method thereof and pharmaceutical application thereof” (Abbisko Therapeutics Co., Ltd., priority 2018, dated 2022).

Experiments:
[1] = target: interaction between PD-1 and PD-L1 expressed on cell surfaces (Homo sapiens (Human), UniProt Q9NZQ7); experiment: Jurkat reporter gene cellular assay (Jurkat/NF-κB-luc/PD1 cells cocultured with Raji-PD-L1 cells, OKT-3 stimulation); assay type: cell-based; conditions: NF-κB-luc reporter activation fold, 6 hrs; read-out: Cell Activity EC50
Method: B. Jurkat Reporter Gene Cellular Assay
The effect of compounds of the examples of the present invention and positive compounds on the interaction between PD-1 and PD-L1 expressed on cell surfaces, and the related influence on T cell functions, were determined by a Jurkat reporter gene cellular assay.
Briefly, the reporter gene plasmid of NF-κB-luc and the plasmid of human PD-1 were transfected into Jurkat cells to establish a stably transfected cell line capable of stably expressing both PD-1 and NF-κB-Luc reporter genes; the expression level of PD-1 on the cell surface was confirmed by flow cytometry: and the expression of the reporter gene was confirmed via the response of the reporter gene stimulated by OKT-3 and Raiji cells.
In addition, the plasmid of human PD-L1 was transfected into Raji cells to obtain a cell line capable of stably expressing PD-L1. Jurkat/NF-κB-luc/PD1 cells and Raji-PD-L1 cells were then cocultured and stimulated with OKT-3. On this basis, the compounds were added, and the enhancement of the signal pathway of T cell activation by the inhibitory effect of the compounds on the interaction between PD-1 and PD-L1 was evaluated by readings of reporter gene responses. The specific experimental process was as follows:
2. 20 μL of Raji-PD-L1 cell suspension was added to each well with 5*10^4 cells for each well, and was incubated in an incubator for 20 min;
3. 20 μL of Jurkat/NF-κb-luc/PD-1 cell suspension was added to each well with 5*10^4 cells for each well, and well mixed, and 6 hrs later, Bright-glo (Promega, E2620) was applied and plates were read on Envision;
4. the reading of each well treated with the compound was compared with the reading of each well treated with DMSO to obtain the activation fold of the compound; and
5. EC50 values of compounds and positive compounds of the examples of the present invention were determined by non-linear regression analysis of activation folds at different compound concentrations.

[2] = target: interaction between PD-1 and PD-L1 (Homo sapiens (Human), UniProt Q9NZQ7); experiment: PD1-PDL1 HTRF binding activity test (Cisbio PD-1/PD-L1 binding assay kit); conditions: read-out: PD1-PDL1 HTRF Binding Activity IC50
Method: A. PD1-PDL1 HTRF Binding Activity Test
The effect of compounds and positive compounds of the examples of the present invention on the interaction between PD-1 and PD-L1 was determined by the PD-1/PD-L1 binding assay kit from Cisbio (#64ICP01PEG or 64ICP01PEH). The detailed experimental process was as follows:
1. Pre-diluted compound solution, 4 μL of Tag1-PD-L1 and 4 μL of Tag2-PD1 were added to each well of a 384-well plate;
3. After incubated for 2 hrs at room temperature or overnight at 4° C., plates were read on Envision of Pelkin Elmer; and readings at 665 nm and 620 nm were recorded, and the ratio of the two readings was taken as a reading for each well;
4. The reading of each well after compound treatment was compared with the reading of DMSO treated wells to obtain the percent inhibition of the compound; and
5. IC50 values of compounds and positive compounds of the examples of the present invention were determined by non-linear regression analysis of percent inhibition at different compound concentrations.

Chain of interaction between PD-1 and PD-L1 (Q9NZQ7 19-238): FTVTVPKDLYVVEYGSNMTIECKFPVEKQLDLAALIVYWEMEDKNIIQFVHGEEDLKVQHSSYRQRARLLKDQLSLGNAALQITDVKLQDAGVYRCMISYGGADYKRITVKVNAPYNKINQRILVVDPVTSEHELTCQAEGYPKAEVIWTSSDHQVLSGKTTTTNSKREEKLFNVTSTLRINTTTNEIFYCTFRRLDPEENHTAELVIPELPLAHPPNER
Chain of interaction between PD-1 and PD-L1 expressed on cell surfaces (Q9NZQ7 19-290): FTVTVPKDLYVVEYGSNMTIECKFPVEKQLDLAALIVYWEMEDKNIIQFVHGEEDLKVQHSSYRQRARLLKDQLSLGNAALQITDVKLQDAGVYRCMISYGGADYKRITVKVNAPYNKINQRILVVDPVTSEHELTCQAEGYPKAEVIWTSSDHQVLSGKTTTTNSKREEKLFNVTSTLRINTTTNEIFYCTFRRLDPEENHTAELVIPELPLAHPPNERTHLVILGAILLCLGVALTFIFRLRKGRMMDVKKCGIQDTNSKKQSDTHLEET

| SMILES | EC50 [1] | IC50 [2] |
| --- | --- | --- |
| COC(=O)[C@H]1CCCCN1Cc1cnc(C(=O)Nc2cccc(-c3cccc(NC(=O)c4cc(C)c(CN5CCCC[C@@H]5C(=O)OC)cn4)c3C)c2C)cc1C [Example 28, dimethyl 1,1′-(((((2,2′-dimethyl-[1,1′-biphenyl]-3,3′-diyl)bis (azanediyl))bis(carbonyl))bis (4-methylpyridine-6,3-diyl))bis(methylene))(2R,2′R)-bis (piperidine-2-carboxylate)] | > 10000 nM | 9.55 nM |
| Cc1cc(C(=O)Nc2cccc(-c3cccc(NC(=O)c4cc(C)c(CN5CCCC[C@@H]5C(=O)O)cn4)c3C)c2C)ncc1CN1CCCC[C@@H]1C(=O)O [Example 29, (2R,2′R)-1,1′-(((((2,2′-dimethyl-[1,1′-biphenyl]-3,3′-diyl)bis (azanediyl))bis(carbonyl))bis (4-methylpyridine-6,3-diyl))bis(methylene))bis(piperidine-2-carboxylic acid)] | 1460 nM | 0.36 nM |
| Cc1cc(C(=O)Nc2cccc(-c3cccc(NC(=O)c4cc(C)c(CN[C@H](CCO)C(=O)O)cn4)c3C)c2C)ncc1CN[C@H](CCO)C(=O)O [Example 30, (2R,2′R)-2,2′-((((((2,2′-dimethyl-[1,1′-biphenyl]-3,3′-diyl)bis(azanediyl))bis(carbonyl))bis(4-methylpyridine-6,3-diyl))bis(methylene))bis(azanediyl)) bis(4-hydroxybutanoic acid)] | 448 nM | 1.24 nM |
| COc1cc(C(=O)Nc2cccc(-c3cccc(NC(=O)c4cc(OC)c(CN5CCOCC5)cn4)c3C)c2C)ncc1CN1CCOCC1 [Example 31, N,N′-(2,2′-dimethyl-[1,1′-biphenyl]-3,3′-diyl)bis(4-methoxy-5-(morpholinomethyl)picolinamide)] | 2080 nM | 1 nM |
| COc1cc(C(=O)Nc2cccc(-c3cccc(NC(=O)c4cc(OC)c(CNC[C@H](O)CO)cn4)c3C)c2C)ncc1CNC[C@H](O)CO [Example 33, N,N'-(2,2′-dimethyl-[1,1′-biphenyl]-3,3′-diyl)(5((((S)-2,3-dihydroxypropyl)amino)methyl)-4-methoxypicolinamide)] | 109 nM | 0.65 nM |
| COCCNCc1cnc(C(=O)Nc2cccc(-c3cccc(NC(=O)c4cc(OC)c(CNCCOC)cn4)c3C)c2C)cc1OC [Example 34, N,N'-(2,2′-dimethyl-[1,1′-biphenyl]-3,3′-diyl)bis(4-methoxy-5-(((2-methoxyethyl)amino)methyl)picolinamide)] | 111 nM | 0.21 nM |
| COc1cc(C(=O)Nc2cccc(-c3cccc(NC(=O)c4cc(OC)c(CNCCOC(F)F)cn4)c3C)c2C)ncc1CNCCOC(F)F [Example 35, N,N'-(2,2′-dimethyl-[1,1′-biphenyl]-3,3′-diyl)bis(5-(((2-(difluoromethoxy)ethyl)amino)methyl)-4-methoxypicolinamide)] | 257 nM | 1.11 nM |
| COCCN(C)Cc1cnc(C(=O)Nc2cccc(-c3cccc(NC(=O)c4cc(OC)c(CN(C)CCOC)cn4)c3C)c2C)cc1OC [Example 36, N,N'-(2,2′-dimethyl-[1,1′-biphenyl]-3,3′-diyl)bis(4-methoxy-5-(((2-methoxyethyl)(methyl)amino)methyl)picolinamide)] | 456 nM | 0.74 nM |
| COc1cc(C(=O)Nc2cccc(-c3cccc(NC(=O)c4cc(OC)c(CN(C)CCO)cn4)c3C)c2C)ncc1CN(C)CCO [Example 37, N,N'-(2,2′-dimethyl-[1,1′-biphenyl]-3,3′-diyl)bis(5-(((2-hydroxyethyl) (methyl)amino)methyl)-4-methoxypicolinamide)] | 118 nM | 0.04 nM |
| COc1cc(C(=O)Nc2cccc(-c3cccc(NC(=O)c4cc(OC)c(CNCCOC(C)=O)cn4)c3C)c2C)ncc1CNCCOC(C)=O [Example 38, ((((((2,2′-dimethyl-[1,1′-biphenyl]-3,3′-diyl)bis(azanediyl))bis (carbonyl))bis(4-methoxypyridine-6,3-diyl))bis(methylene))bis (azanediyl))bis(ethane-2,1-diyl) diacetate] | 7000 nM | 0.83 nM |
| COc1cc(C(=O)Nc2cccc(-c3cccc(NC(=O)c4cc(OC)c(CNCCNC(C)=O)cn4)c3C)c2C)ncc1CNCCNC(C)=O [Example 39, N,N′-(2,2′-dimethyl-[1,1′-biphenyl]-3,3′-diyl)bis(5-(((2-acetamidoethyl)amino)methyl)-4-methoxypicolinamide)] | 225 nM | 0.86 nM |
| COc1cc(C(=O)Nc2cccc(-c3cccc(NC(=O)c4cc(OC)c(CNCC(C)(C)O)cn4)c3C)c2C)ncc1CNCC(C)(C)O [Example 40, N,N'-(2,2′-dimethyl-[1,1′-biphenyl]-3,3′-diyl)bis(5-(((2-hydroxy-2-methylpropyl)amino)methyl)-4-methoxypicolinamide)] | 172 nM | 0.29 nM |
| COc1cc(C(=O)Nc2cccc(-c3cccc(NC(=O)c4cc(OC)c(CN5CC[C@H](O)C5)cn4)c3C)c2C)ncc1CN1CC[C@H](O)C1 [Example 48, N,N'-(2,2′-dimethyl-[1,1′-biphenyl]-3,3′-diyl)bis(5-(((S)-3-hydroxypyrrolidin-1-yl)methyl)-4-methoxypicolinamide)] | 102 nM | 0.31 nM |
| COc1cc(C(=O)Nc2cccc(-c3cccc(NC(=O)c4cc(OC)c(CN5CCC(O)CC5)cn4)c3C)c2C)ncc1CN1CCC(O)CC1 [Example 49, N,N'-(2,2′-dimethyl-[1,1′-biphenyl]-3,3′-diyl)bis(5-((4-hydroxypiperidin-l-yl)methyl)-4-methoxypicolinamide)] | 104 nM | 0.33 nM |

Now those with a lower EC50 [1], led by results:

| EC50 [1] | IC50 [2] | SMILES |
| --- | --- | --- |
| 74 nM | 0.032 nM | COc1cc(C(=O)Nc2cccc(-c3cccc(NC(=O)c4cc(OC)c(CNCC5(O)CC5)cn4)c3C)c2C)ncc1CNCC1(O)CC1 [Example 41, N,N'-(2,2′-dimethyl-[1,1′-biphenyl]-3,3′-diyl)bis(5-((((1-hydroxycyclopropyl)methyl)amino)methyl)-4-methoxypicolinamide)] |
| 60 nM | 0.28 nM | COc1cc(C(=O)Nc2cccc(-c3cccc(NC(=O)c4cc(OC)c(CN[C@H](C)CO)cn4)c3C)c2C)ncc1CN[C@H](C)CO [Example 42, N,N'-(2,2′-dimethyl-[1,1′-biphenyl]-3,3′-diyl)bis(5-((((R)-1-hydroxypropan-2-yl)amino)methyl)-4-methoxypicolinamide)] |
| 55 nM | 0.24 nM | COc1cc(C(=O)Nc2cccc(-c3cccc(NC(=O)c4cc(OC)c(CN[C@H]5CCC[C@@H]5O)cn4)c3C)c2C)ncc1CN[C@H]1CCC[C@@H]1O [Example 44, N,N'-(2,2′-dimethyl-[1,1′-biphenyl]-3,3′-diyl)bis(5-((((1S,2S)-2-hydroxycyclopentyl)amino)methyl)-4-methoxypicolinamide)] |
| 53 nM | 0.27 nM | CNCc1cnc(C(=O)Nc2cccc(-c3cccc(NC(=O)c4cc(OC)c(CNC)cn4)c3C)c2C)cc1OC [Example 32, N,N'-(2,2′-dimethyl-[1,1′-biphenyl]-3,3′-diyl)bis(4-methoxy-5-((methylamino)methyl)picolinamide)] |
| 46 nM | 0.27 nM | COc1cc(C(=O)Nc2cccc(-c3cccc(NC(=O)c4cc(OC)c(CN5CC[C@@H](O)C5)cn4)c3C)c2C)ncc1CN1CC[C@@H](O)C1 [Example 47, N,N'-(2,2′-dimethyl-[1,1′-biphenyl]-3,3′-diyl)bis(5-(((R)-3-hydroxypyrrolidin-1-yl)methyl)-4-methoxypicolinamide)] |
| 41 nM | 0.22 nM | COc1cc(C(=O)Nc2cccc(-c3cccc(NC(=O)c4cc(OC)c(CN5CC(O)C5)cn4)c3C)c2C)ncc1CN1CC(O)C1 [Example 45, N,N'-(2,2′-dimethyl-[1,1′-biphenyl]-3,3′-diyl)bis(5-((3-hydroxyazetidin-l-yl)methyl)-4-methoxypicolinamide)] |
| 11 nM | 0.29 nM | COc1cc(C(=O)Nc2cccc(-c3cccc(NC(=O)c4cc(OC)c(CN[C@@H](C)CO)cn4)c3C)c2C)ncc1CN[C@@H](C)CO [Example 43, N,N'-(2,2′-dimethyl-[1,1′-biphenyl]-3,3′-diyl)bis(5-((((S)-1-hydroxypropan-2-yl)amino)methyl)-4-methoxypicolinamide)] |
